Results published in patent US20250145585A1, “HETEROCYCLIC INHIBITORS OF IGF-1R FOR TREATMENT OF DISEASE” (HORIZON THERAPEUTICS IRELAND DAC, priority 2023, published 2025).

Legend:
[1] = target: T1, IGF-1R (Homo sapiens, UniProt P08069); assay: Example B-2: IGF-1R Assay (PathHunter cell lines, EC80 agonist challenge, chemiluminescent detection); type: cell-based; settings: PathHunter cells, compound 60 minutes at 37° C., EC80 agonist 3 hours; read-out: IC50, Biological Activity against IGF-1R (Table B2)
T1 construct: expressed in transfected cells
T1 sequence (P08069 31-1367): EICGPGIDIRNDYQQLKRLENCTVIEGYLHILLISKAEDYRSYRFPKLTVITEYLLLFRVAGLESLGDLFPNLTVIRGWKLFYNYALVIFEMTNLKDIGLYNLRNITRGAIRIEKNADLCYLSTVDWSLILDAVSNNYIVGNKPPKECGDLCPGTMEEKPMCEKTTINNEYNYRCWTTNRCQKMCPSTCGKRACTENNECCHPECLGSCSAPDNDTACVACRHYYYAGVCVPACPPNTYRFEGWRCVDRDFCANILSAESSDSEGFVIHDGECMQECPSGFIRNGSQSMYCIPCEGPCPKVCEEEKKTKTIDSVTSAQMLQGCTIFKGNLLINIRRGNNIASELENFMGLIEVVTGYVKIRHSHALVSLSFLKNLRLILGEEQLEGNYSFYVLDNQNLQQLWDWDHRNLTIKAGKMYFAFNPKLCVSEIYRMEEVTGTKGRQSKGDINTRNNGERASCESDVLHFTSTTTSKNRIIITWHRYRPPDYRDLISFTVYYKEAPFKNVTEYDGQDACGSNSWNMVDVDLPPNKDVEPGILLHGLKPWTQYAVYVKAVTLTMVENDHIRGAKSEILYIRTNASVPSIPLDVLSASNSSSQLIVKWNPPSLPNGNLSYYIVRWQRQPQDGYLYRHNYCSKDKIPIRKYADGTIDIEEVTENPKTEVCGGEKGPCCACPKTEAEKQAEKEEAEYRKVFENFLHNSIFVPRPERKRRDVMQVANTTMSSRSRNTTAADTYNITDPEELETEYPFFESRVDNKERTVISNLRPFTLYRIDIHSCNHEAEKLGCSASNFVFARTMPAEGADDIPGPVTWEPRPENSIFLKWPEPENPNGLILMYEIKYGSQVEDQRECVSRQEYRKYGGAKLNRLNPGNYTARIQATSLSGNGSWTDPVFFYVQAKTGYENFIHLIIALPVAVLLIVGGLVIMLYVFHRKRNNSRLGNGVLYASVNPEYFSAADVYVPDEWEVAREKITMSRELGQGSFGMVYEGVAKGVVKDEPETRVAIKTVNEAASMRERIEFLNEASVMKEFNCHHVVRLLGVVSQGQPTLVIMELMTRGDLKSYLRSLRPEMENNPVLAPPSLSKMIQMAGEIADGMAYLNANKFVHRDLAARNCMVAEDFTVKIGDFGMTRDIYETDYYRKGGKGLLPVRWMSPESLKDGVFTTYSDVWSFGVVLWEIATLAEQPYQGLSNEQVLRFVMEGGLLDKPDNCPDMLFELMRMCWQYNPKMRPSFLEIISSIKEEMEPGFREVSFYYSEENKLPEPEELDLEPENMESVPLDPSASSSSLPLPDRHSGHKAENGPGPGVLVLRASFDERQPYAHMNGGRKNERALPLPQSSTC
Outline: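 Read-out is PathHunter chemiluminescence, developed for 1 h at room temperature after a 3 h room-temperature EC80 agonist challenge that followed 60 min compound pre-treatment at 37° C (1% vehicle). IC50 comes from % inhibition normalized to EC80 and vehicle controls.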

[2] = target: T1, IGF-1R; assay: Example B-1: IGF-1R Assay (PC3 cells stimulated with IGF1, AlphaLISA on cell lysates); type: cell-based; settings: compound two hours, IGF1 200 ng/mL for 30 min, read-out: IC50, Biological Activity against IGF-1R (Table B1)
Outline: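 IC50 from AlphaLISA read-out of lysed PC3 cells, percent inhibition normalized between vehicle and EC80 controls. Before lysis, cells had 2 h serum-free starvation, 2 h exposure to compound in 3× dilution series, and 30 min IGF1 stimulation at final 200 ng/mL.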

Row | IC50 [1] [nM] | IC50 [2] [nM] | SMILES
1 | 500 to 2000 | ≤ 500 | C[C@@H](CC#N)Nc1cc(CN2C(=O)N(c3ccc(C(C)(C)C)cc3)C(=O)C2(C)C)ccn1 [Compound 278, (S)-3-((4-((3-(4-(tert-butyl)phenyl)-5,5-dimethyl-2,4-dioxoimidazolidin-1-yl)methyl)pyridin-2-yl)amino)butanenitrile]
2 | > 10000 | > 10000 | CC(C)Nc1cc(CN2C(=O)N(c3ccc(SC(F)(F)F)cc3)C(=O)[C@@H]2CO)ccn1 [Compound 298, (S)-5-(hydroxymethyl)-1-((2-(isopropylamino)pyridin-4-yl)methyl)-3-(4-((trifluoromethyl)thio)phenyl)imidazolidine-2,4-dione]
3 | 2000 to 10000 | 2000 to 10000 | CC(C)Nc1cc(CN2C(=O)N(c3ccc(SC(F)(F)F)cc3)C(=O)C2(C)CO)ccn1 (centres unmarked) [Compound 299, 5-(hydroxymethyl)-1-((2-(isopropylamino)pyridin-4-yl)methyl)-5-methyl-3-(4-((trifluoromethyl)thio)phenyl)imidazolidine-2,4-dione]
4 | ≤ 500 | ≤ 500 | CC1(C)C(=O)N(c2ccc(SC(F)(F)F)cc2)C(=O)N1Cc1ccnc(NC2CCOCC2)c1 [Compound 310, 5,5-dimethyl-1-((2-((tetrahydro-2H-pyran-4-yl)amino)pyridin-4-yl)methyl)-3-(4-((trifluoromethyl)thio)phenyl)imidazolidine-2,4-dione]
5 | ≤ 500 | ≤ 500 | CC1(C)C(=O)N(c2ccc(S(=O)(=O)C(F)(F)F)cc2)C(=O)N1Cc1ccnc(NC2CCOCC2)c1 [Compound 316, 5,5-dimethyl-1-((2-((tetrahydro-2H-pyran-4-yl)amino)pyridin-4-yl)methyl)-3-(4-((trifluoromethyl)sulfonyl)phenyl) imidazolidine-2,4-dione]
6 | ≤ 500 | ≤ 500 | CC1(C)C(=O)N(c2ccc(S(=O)(=O)C(F)(F)F)cc2)C(=O)N1Cc1ccnc(NCC(F)F)c1 [Compound 317, 1-((2-((2,2-difluoroethyl)amino)pyridin-4-yl)methyl)-5,5-dimethyl-3-(4-((trifluoromethyl)sulfonyl)phenyl) imidazolidine-2,4-dione]
7 | ≤ 500 | ≤ 500 | COC[C@@H](C)Nc1cc(CN2C(=O)N(c3ccc(S(=O)(=O)C(F)(F)F)cc3)C(=O)C2(C)C)ccn1 [Compound 318, (R)-1-((2-((1-methoxypropan-2-yl)amino)pyridin-4-yl)methyl)-5,5-dimethyl-3-(4-((trifluoromethyl)sulfonyl)phenyl) imidazolidine-2,4-dione]
8 | ≤ 500 | ≤ 500 | CC1(C)C(=O)N(c2ccc(S(=O)(=O)C(F)(F)F)cc2)C(=O)N1Cc1ccnc(N[C@H]2[C@@H]3COC[C@@H]32)c1 [Compound 319, 1-((2-(((1R,5S,6r)-3-oxabicyclo[3.1.0]hexan-6-yl)amino)pyridin-4-yl)methyl)-5,5-dimethyl-3-(4-((trifluoromethyl)sulfonyl)phenyl) imidazolidine-2,4-dione]
9 | ≤ 500 | ≤ 500 | CC1(C)C(=O)N(c2ccc(SC(F)(F)F)cc2)C(=O)N1Cc1ccnc(NC(=O)Nc2cccc(F)c2)c1 [Compound 373, 1-(4-((5,5-dimethyl-2,4-dioxo-3-(4-((trifluoromethyl)thio)phenyl)imidazolidin-1-yl)methyl)pyridin-2-yl)-3-(3-fluorophenyl)urea]
10 | ≤ 500 | ≤ 500 | CC1(C)C(=O)N(c2ccc(SC(F)(F)F)cc2)C(=O)N1Cc1ccnc(N)c1Br [Compound 388, 1-((2-amino-3-bromopyridin-4-yl)methyl)-5,5-dimethyl-3-(4-((trifluoromethyl)thio)phenyl)imidazolidine-2,4-dione]
11 | 500 to 2000 | 500 to 2000 | CC1(C)C(=O)N(c2ccc(SC(F)(F)F)cc2)C(=O)N1Cc1ccnc(N)c1P(C)(C)=O [Compound 389, 1-((2-amino-3-(dimethylphosphoryl)pyridin-4-yl)methyl)-5,5-dimethyl-3-(4-((trifluoromethyl)thio)phenyl) imidazolidine-2,4-dione]
12 | ≤ 500 | 2000 to 10000 | CC(C)Nc1nccc(CN2C(=O)N(c3ccc(SC(F)(F)F)cc3)C(=O)C2(C)C)c1Br [Compound 390, 1-((3-bromo-2-(isopropylamino)pyridin-4-yl)methyl)-5,5-dimethyl-3-(4-((trifluoromethyl)thio)phenyl)imidazolidine-2,4-dione]
13 | ≤ 500 | ≤ 500 | CC1(C)C(=O)N(c2ccc(SC(F)(F)F)cc2)C(=O)N1Cc1ccnc(N)c1C#N [Compound 391, 2-amino-4-((5,5-dimethyl-2,4-dioxo-3-(4-((trifluoromethyl)thio)phenyl)imidazolidin-1-yl)methyl)nicotinonitrile]
14 | 500 to 2000 | 500 to 2000 | CC(C)Nc1cc(CN2C(=O)N(c3ccc(SC(F)(F)F)nc3)C(=O)C2(C)C)ccn1 [Compound 392, 1-((2-(isopropylamino)pyridin-4-yl)methyl)-5,5-dimethyl-3-(6-((trifluoromethyl)thio)pyridin-3-yl)imidazolidine-2,4-dione]
15 | ≤ 500 | ≤ 500 | COc1c(CN2C(=O)N(c3ccc(S(=O)(=O)C(F)(F)F)cc3)C(=O)C2(C)C)ccnc1N [Compound 394, 1-((2-amino-3-methoxypyridin-4-yl)methyl)-5,5-dimethyl-3-(4-((trifluoromethyl)sulfonyl)phenyl) imidazolidine-2,4-dione]
16 | 2000 to 10000 | 2000 to 10000 | CN1C(=O)C2(CC2)c2ccc(N3C(=O)N(Cc4ccnc(N)c4)C(C)(C)C3=O)cc21 [Compound 402, 1-((2-aminopyridin-4-yl)methyl)-5,5-dimethyl-3-(1′-methyl-2′-oxospiro[cyclopropane-1,3′-indolin]-6′-yl)imidazolidine-2,4-dione]
